Data as given in patent US6194465A, “Benzamide therapeutics for the treatment of inflammatory bowel disease” (priority 1999, dated 2001).
“Also recorded” adds a separate entry of the source.

Experiments:
[1] = test system: inflammatory bowel disease; conditions: cited from earlier work; for effectiveness in small bowel inflammation / side-effects (in words): IBD patients
[2] = test system: TNBS induced model of colitis; conditions: only if multiple high doses administered intra-rectally; cited from earlier work
[3] = test system: TNBS-induced colonic inflammation; test: TNBS model, Compound N and comparison with 5-ASA; assay type: in vivo, rats
Method: Male Sprague-Dawley rats (200-250 g) were housed in standard cages (2 per cage) and fed rat chow and tap water ad libitum. After an overnight fast, rats were brought into the laboratory and randomized into treatment groups. Colitis was induced by intrarectal administration of 0.5 ml of TNBS solution (50 mg/kg in 50% ethanol) using a 1 ml syringe attached to a 5 cm polyethylene catheter. Control animals received saline (0.9%) or a 1 % methyl cellulose suspension at identical time points.
Three days after TNBS administration, the rats were sacrificed and the colons excised and opened longitudinally.
Compound N was subjected to a series of TNBS activity tests as just described.
Groups of rats (11 rats/group) were administered Compound N (10 mg/kg po), 5-ASA (10 mg/kg po), 5-ASA (300 mg/kg po), or the methylcellulose vehicle 1 hour prior to the TNBS enema. After 3 days the rats were sacrificed and the colonic damage morphologically evaluated.
Groups of rats, were administered increasing doses of Compound N (0-100 mg/kg-po) 1 hour prior to TNBS enema. In these experiments the endpoint was macroscopic assessment.

[4] = PK parameter estimates, 30 mg/kg po (Table 1); assay type: in vivo, rats; conditions: Compound N relative to Compound A, rats, 30 mg/kg po; 30 mg/kg
Method: The bioavailability of compound N is depicted in FIG. 10 as well. |(NRTs Dosed 30 mg/kg po in 1% Methyl Cellulose, n = 3 rats/NRT)

[5] = test system: senescence accelerated mice; conditions: cited from earlier work
[6] = following ischemia; cited from earlier work
lethality induced by LPS = conditions: various rodent models of septic shock; cited from earlier work
[7] = test system: inducible nitric oxide synthetase (iNOS); conditions: cited from earlier work
[8] = test system: adjuvant induced arthritis; test: Rat adjuvant induced arthritis model of chronic inflammation; assay type: in vivo; conditions: Compound A 100 mg/kg po or dexamethasone 0.1 mg/kg, daily 7 days, vs adjuvant
Method: Confirmation of the anti-inflammatory activity of Compound A was sought in another related biological test-the rat adjuvant induced arthritis model of chronic inflammation. This model was selected because almost all of the anti-IBD agents also show efficacy in standard arthritis models. In this model Compound A was tested at 100 mg/kg, po in a 1 % methyl cellulose suspension. On day 0 all animals received an injection of either Mycobacterium butyricum (100μL, 20 mg/mL in mineral oil) or mineral oil in the base of the tail. 14 days after this injection, rat paws were measured and all the rats were randomized into 3 treatment groups of 8. A control adjuvant group (group without further treatment), a group to be treated with dexamethasone (steroid reference) and a group to treated with Compound A. Rats received Compound A 100 mg/kg, po, or dexamethasone 0.1 mg/kg, op, daily until day 21 (7 days dosing). On day 21 rats were sacrificed. Paw measurements were taken after 5 and 7 days treatment.

[9] = 0-100 mg/kg po, 1 hour prior to TNBS

For `Nc1ccc(O)c(C(=O)O)c1` [Compound 5-ASA], the “time to full efficacy” value ([1]; 5-ASA therapy) is listed as 6-8 weeks, the “response in Crohn's disease” value [1] is listed as “poor” and the “response in early ulcerative colitis” value [1] is listed as “fair to mild”. The “response in severe ulcerative colitis” value [1] was “poor”, the “protection, 5-ASA intra-rectal” value [2] was 50% and the “effect on TNBS-induced colonic inflammation, 5-ASA 10 mg/kg” value ([3]; 10 mg/kg po, 1 hour before TNBS) was “no effect”. For the same compound, the “effect on TNBS-induced colonic inflammation, 5-ASA 300 mg/kg” value ([3]; 300 mg/kg po, 1 hour before TNBS) was “no effect”.
In the case of `CC(C)(C)NC(=O)c1ccc(N)cc1` [Compound N, N-tert-butyl-4-aminobenzamide], the “clearance / systemic exposure / variability (in words)” value [4] is reported as “lower clearance; also recorded: overall greater systemic exposure; also recorded: relatively low variability in plasma concentration”, the “colonic morphological score, dose-response (in words)” value [3, 9] is reported as “dose=dependent reduction in the colonic morphological score” and the significance of protection [3, 9] is reported as “only significant (p <0.05) at the 10, 30 and 100 mg/kg doses”. The “efficacy, 10 mg/kg po, Compound N” value ([3]; 10 mg/kg po single dose, 1 hour before TNBS) was “excellent efficacy”, the “activity relative to Compound A” value ([3]; TNBS activity tests) was “better activity than that of Compound A” and the protection ([3]; TNBS activity tests) was 75%.
For `CC(C)(C)[N+]([O-])=Cc1ccccc1` [PBN, α-phenyl-t-butyl nitrone], the “increase of life span” value [5] is given as “one third”, the “trapping of reactive oxygen species and/or secondary free radicals” value [6] is given as “trap reactive oxygen species and/or secondary free radicals” and the “protection against lethality induced by LPS” value (lethality induced by LPS) is given as “consistent and well documented protection”. For the same compound, the “block of iNOS” value [7] was “block inducible nitric oxide synthetase”.
In the case of `C[C@@H]1C[C@H]2[C@@H]3CCC4=CC(=O)C=C[C@]4(C)[C@@]3(F)[C@@H](O)C[C@]2(C)[C@@]1(O)C(=O)CO` [dexamethasone, reference compound], the “inhibition of the inflammatory response” value [8] is reported as “significant inhibition of the inflammatory response (p<0.005)”.
In the case of `O=C(O)c1cc(/N=N/c2ccc(O)c(C(=O)O)c2)ccc1O` [olsalazine], the “effectiveness in small bowel inflammation” value [1] is given as “Neither sulfasalazine nor olsalazine are effective” and the “side-effects (in words)” value [1] is given as “side effects are reduced”.
In the case of `Nc1ccc(S(=O)(=O)Nc2ccccn2)cc1` [sulfapyridine], the “side-effects (in words)” value [1] is given as “significant side-effects such as reversible sperm abnormalities, dyspepsia or allergic reactions to the sulpha component” and the “patients who cannot tolerate” value ([1]; sulfapyridine component of sulfasalazine) is given as “at least 20 % of patients”.
For `O=C(O)c1cc(/N=N/c2ccc(S(=O)(=O)Nc3ccccn3)cc2)ccc1O` [sulfasalazine], the “response in Crohn's disease” value [1] is given as “poor”, the “effectiveness in small bowel inflammation” value [1] is given as “Neither sulfasalazine nor olsalazine are effective” and the “response in early ulcerative colitis” value [1] is given as “fair to mild”. For the same compound, the “response in severe ulcerative colitis” value [1] was “poor”.
